Patent publication US12458640B2, “Pyrazolo[3,4-b]pyrazine SHP2 phosphatase inhibitors” (OTSUKA PHARMACEUTICAL CO., LTD., priority 2019, dated 2025)
Where a name gives a salt, the structure may show the parent alone.

Assays:
pERK = experiment: Cellular pERK Inhibition Assay (phospho-p44/42 MAPK sandwich ELISA); assay type: cell-based; settings: Homo sapiens; HCC827 cells, 0.5 hours compound treatment; average where more than one data point
Procedure: Cellular pERK Inhibition Assay
HCC827 cells (ATCC, Manassas, USA) were seeded into 96-well plates at a density of 1×10^5 cells/well in RPMI medium supplemented with 10% FBS and incubated 24 h. Compounds were diluted first in DMSO and then into serum-free medium, before being added to cells in triplicate to give a final concentration of 0.1% DMSO. Plates were incubated at 37° C. for 0.5 hours in a humidified atmosphere of 5% CO2 in air.
Following compound treatment, medium was removed and cells were lysed by adding 50 μL of lysis buffer (Cell Signalling Technology, Beverly, USA) to each well. Plates were then incubated at room temperature for 25 minutes with shaking. pERK levels were measured in lysates using the PathScan® phospho-p44/42 MAPK (Thr202/Tyr204) sandwich ELISA (Cell Signalling Technology, Beverly, USA) as per kit instructions. Briefly, 50 μL of cell lysate was added to 50 μL of ELISA sample diluent in a 96-well ELISA plate and incubated overnight at 4° C. Following washing, 100 μL of detection antibody was added per well and the plates incubated for 1 hour at 37° C. Plates were washed again and incubated at 37° C. for 30 minutes with 100 μl of HRP-linked secondary antibody per well. After final washing, 100 μL per well of TMB substrate was added and plates incubated at 37° C. to develop colour. Colour development was stopped by the addition of 100 μL per well of stop solution. Plates were read at 450 nm on a SpectraMax Gemini reader (Molecular Devices, Uckfield, UK).
The average signal from blank wells (no cells added) was subtracted from the signals from each sample well. Levels of pERK were then expressed as “percent of control”, using DMSO treated samples as control. Dose response curves were generated using GraphPad Prism Version 6 (GraphPad Software, La Jolla, USA) and fitted using the four parameter logistic curve fit.

SHP2 = SHP2 (Homo sapiens (Human), UniProt Q06124); experiment: Shp2 Biochemical Assay (DiFMUP conversion); settings: for IC50: 10 pM SHP2, activating peptide pIRS1, DiFMUP substrate, average where more than one data point
Procedure: SHP2 activity was monitored by measuring the conversion of the surrogate substrate 6,8-difluoromethylumbelliferyl phosphate (DiFMUP) to the fluorescent product, 6,8-difluoromethylumbelliferone (DiFMU).
SHP2 was pre-incubated with test compounds and the activating peptide pIRS1 (H2N-LN(pY)IDLDLV-(PEG)8-LST(pY)ASINFQK-amide) for 30 min, prior to addition of the 6,8-difluoromethylumbelliferyl phosphate (DiFMUP), (Thermo Fisher D6567). Final assay concentrations were 10 pM SHP2, 0.25 μM pIRS1 peptide, 50 μM DiFMUP, 25 mM Bis-Tris propane, pH 7.0, 150 mM NaCl, 0.05% (v/v) Tween-20, 0.5 mM TCEP and 5% (v/v) DMSO. Rates of reaction were then measured over 30 min by monitoring fluorescence on a BMG Pherastar reader at excitation 360 nm/emission 450 nm. IC50 values were calculated from the normalized dose-response plots using four parameter logistic curve fit.

SHP2, sequence (Q06124 whole entry): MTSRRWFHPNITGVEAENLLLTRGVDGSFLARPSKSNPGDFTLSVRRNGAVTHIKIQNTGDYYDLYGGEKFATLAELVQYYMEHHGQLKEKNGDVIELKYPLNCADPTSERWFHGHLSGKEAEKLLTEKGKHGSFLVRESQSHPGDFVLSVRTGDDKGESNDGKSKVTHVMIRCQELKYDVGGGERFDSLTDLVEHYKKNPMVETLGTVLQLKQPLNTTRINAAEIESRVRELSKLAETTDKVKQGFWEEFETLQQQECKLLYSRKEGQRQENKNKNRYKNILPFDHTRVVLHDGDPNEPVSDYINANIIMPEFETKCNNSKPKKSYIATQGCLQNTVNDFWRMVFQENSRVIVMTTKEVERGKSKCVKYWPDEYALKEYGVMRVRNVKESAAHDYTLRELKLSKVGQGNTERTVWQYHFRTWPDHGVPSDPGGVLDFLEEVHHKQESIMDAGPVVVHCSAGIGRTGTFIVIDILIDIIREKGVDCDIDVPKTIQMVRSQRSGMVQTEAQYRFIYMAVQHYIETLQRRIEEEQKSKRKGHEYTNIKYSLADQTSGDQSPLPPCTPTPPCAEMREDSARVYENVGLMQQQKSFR

| Structure (SMILES) | IC50 (pERK) [nM] | IC50 (SHP2) [nM] | inhibition at 0.01 µM (SHP2; at 0.010 μM, read-out: SHP2 % inhibition at given concentration) [%] | inhibition at 0.03 µM (SHP2; at 0.030 μM, read-out: SHP2 % inhibition at given concentration) [%] |
| --- | --- | --- | --- | --- |
| Cc1nc2c(-c3ccc4nn(C)cc4c3Cl)n[nH]c2nc1N1CCC2(CC1)C[C@@H](C(F)(F)F)C[C@H]2N [Example 1, (1R,3R)-8-[3-(4-chloro-2-methyl-2H-indazol-5-yl)-5-methyl-1H-pyrazolo[3,4-b]pyrazin-6-yl]-3-(trifluoromethyl)-8-azaspiro[4.5]decan-1-amine hydrochloride] | 74 | 20 |  |  |
| COc1cnc2ccc(-c3n[nH]c4nc(N5CCC6(CC5)COC[C@H]6N)c(C)nc34)c(Cl)c2n1 [Example 13, (4S)-8-[3-(5-chloro-3-methoxyquinoxalin-6-yl)-5-methyl-1H-pyrazolo[3,4-b]pyrazin-6-yl]-2-oxa-8-azaspiro[4.5]decan-4-amine] | 95 |  | 35 |  |
| C[C@@H]1OCC2(CCN(c3nc4[nH]nc(-c5ccc6nn(C)c(Cl)c6c5Cl)c4nc3CO)CC2)[C@@H]1N [Example 8, {6-[(3S,4S)-4-amino-3-methyl-2-oxa-8-azaspiro[4.5]decan-8-yl]-3-(3,4-dichloro-2-methyl-2H-indazol-5-yl)-1H-pyrazolo[3,4-b]pyrazin-5-yl}methanol] | 3.6 | 7.1 |  |  |
| Cc1nc2c(-c3ccc4ncc(N(C)C)nc4c3Cl)n[nH]c2nc1N1CCC2(CC1)COC[C@H]2N [Example 11, (4S)-8-{3-[5-chloro-3-(dimethylamino)quinoxalin-6-yl]-5-methyl-1H-pyrazolo[3,4-b]pyrazin-6-yl}-2-oxa-8-azaspiro[4.5]decan-4-amine] | 32 |  |  | 66 |
| Cc1nc2c(-c3ccc4nn(C)c(Cl)c4c3Cl)n[nH]c2nc1N1CCC2(CCC[C@H]2N)CC1 [Example 15, (1R)-8-[3-(3,4-dichloro-2-methyl-2H-indazol-5-yl)-5-methyl-1H-pyrazolo[3,4-b]pyrazin-6-yl]-8-azaspiro[4.5]decan-1-amine] | 59 | 7.6 |  |  |
| Cc1nc2c(-c3ccc4ncc(N5CCC5)nc4c3Cl)n[nH]c2nc1N1CCC2(CC1)CO[C@@H](C)[C@H]2N [Example 25, (3S,4S)-8-{3-[3-(azetidin-1-yl)-5-chloroquinoxalin-6-yl]-5-methyl-1H-pyrazolo[3,4-b]pyrazin-6-yl}-3-methyl-2-oxa-8-azaspiro[4.5]decan-4-amine] | 28 | 24 |  |  |
| C[C@@H]1OCC2(CCN(c3nc4[nH]nc(-c5ccccc5Cl)c4nc3CO)CC2)[C@@H]1N [Example 24, {6-[(3S,4S)-4-amino-3-methyl-2-oxa-8-azaspiro[4.5]decan-8-yl]-3-(2-chlorophenyl)-1H-pyrazolo[3,4-b]pyrazin-5-yl}methanol] | 6.4 | 11 |  |  |
